The results in this text go back to ChEMBL document CHEMBL5465560, “Selectivity Literature for EUbOPEN Chemogenomic Library” (2024).

For series [1], the target named is Leukocyte tyrosine kinase receptor (Homo sapiens, UniProt P29376). Put plainly: Selectivity interaction (Kinase panel (Z-LYTE Assay)) EUB0001632a LTK. The settings on record: at 10 µM.
In series [2] the target is Tyrosine-protein kinase Fes/Fps (Homo sapiens) (UniProt P07332). Nature of the series: Selectivity interaction (SelectScreen profiling (Invitrogen)) EUB0000607a FES. The settings on record: at 2 µM.
For series [3], the target named is Insulin receptor-related protein (Homo sapiens) (UniProt P14616). Put plainly: Selectivity interaction (KinomeScan (DiscoverX)) EUB0000607a INSRR. The settings on record: at 10 µM.
The target of series [4] is Ribosomal protein S6 kinase alpha-1 (Homo sapiens, UniProt Q15418). Nature of the series: Selectivity interaction (KinomeScan (DiscoverX)) EUB0000607a RPS6KA1. The settings on record: at 10 µM.
The target in series [5] is Protein-tyrosine kinase 6 (Homo sapiens, UniProt Q13882). The settings on record: at 10 µM.
The target in series [6] is T1, Interleukin-1 receptor-associated kinase 4 (Homo sapiens) (UniProt Q9NWZ3).
T1 sequence (whole entry): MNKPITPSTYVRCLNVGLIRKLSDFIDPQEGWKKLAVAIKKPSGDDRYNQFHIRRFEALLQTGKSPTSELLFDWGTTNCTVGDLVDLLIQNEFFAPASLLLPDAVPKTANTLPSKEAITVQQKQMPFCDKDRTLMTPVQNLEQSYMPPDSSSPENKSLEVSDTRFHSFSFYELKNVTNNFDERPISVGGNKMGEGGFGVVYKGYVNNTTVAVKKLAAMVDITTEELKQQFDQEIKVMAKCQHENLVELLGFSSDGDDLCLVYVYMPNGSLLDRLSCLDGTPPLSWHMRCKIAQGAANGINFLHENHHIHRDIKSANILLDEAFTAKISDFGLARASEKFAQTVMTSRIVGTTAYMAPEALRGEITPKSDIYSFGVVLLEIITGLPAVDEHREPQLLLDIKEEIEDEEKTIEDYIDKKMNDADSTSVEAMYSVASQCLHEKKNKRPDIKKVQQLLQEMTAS
Put plainly: Selectivity interaction (KinomeScan (DiscoverX)) EUB0000666a IRAK4. The settings on record: at 10 µM.

The next series addresses Misshapen-like kinase 1 (Homo sapiens, UniProt Q8N4C8). Put plainly: Selectivity interaction (KinomeScan (DiscoverX)) EUB0000229b MINK1. The settings on record: at 10 µM.
The target of series [7] is Ribosomal protein S6 kinase alpha-6 (Homo sapiens, UniProt Q9UK32). Nature of the series: Selectivity interaction (KinomeScan (DiscoverX)) EUB0000229b RPS6KA6. The settings on record: at 10 µM.
Series [8] deals with Receptor tyrosine-protein kinase erbB-3 (Homo sapiens) (UniProt P21860). Nature of the series: Selectivity interaction (KinomeScan (DiscoverX)) EUB0000655a ERBB3. The settings on record: at 10 µM.
The target in series [9] is Tyrosine-protein kinase ABL2 (Homo sapiens, UniProt P42684). Put plainly: Selectivity interaction (KinomeScan (DiscoverX)) EUB0001079a ABL2. The settings on record: at 1 µM.
For series [10], the target named is Tyrosine-protein kinase SYK (Homo sapiens, UniProt P43405). Nature of the series: Selectivity interaction (ActivX KiNativ screen (ex vivo kinase selectivity in human PBMCs)) EUB0001619a SYK. In kind it is cell-based. The settings on record: PBMC, at 1 µM.
In series [11] the target is Fibroblast growth factor receptor 4 (Homo sapiens, UniProt P22455). Nature of the series: Selectivity interaction (Kinase panel (33PanQinase(R) Activity Assay)) EUB0000877a FGFR4.
Series [12] addresses Mitogen-activated protein kinase kinase kinase 10 (Homo sapiens) (UniProt Q02779). Put plainly: Selectivity interaction (Kinase panel (Invitrogen)) EUB0000639a MAP3K10. The settings on record: at 200 nM.
Series [13] concerns the target Serine/threonine-protein kinase 38-like (Homo sapiens) (UniProt Q9Y2H1). Nature of the series: Selectivity interaction (ActivX KiNativ screen (kinase selectivity in THP-1 cell lysates)) EUB0000639a STK38L. Format: subcellular. The settings on record: lysate, at 0.2 µM.
Series [14] concerns the target 5'-AMP-activated protein kinase catalytic subunit alpha-2 (Homo sapiens) (UniProt P54646). Nature of the series: Selectivity interaction (ActivX KiNativ screen (kinase selectivity in THP-1 cell lysates)) EUB0000639a PRKAA2. The settings on record: lysate, at 0.04 µM. Format: subcellular.
The target of series [15] is Cyclin-dependent kinase 18 (Homo sapiens) (UniProt Q07002). Nature of the series: Selectivity interaction (KinomeScan (DiscoverX)) EUB0000695a CDK18. The settings on record: at 100 nM.
The target of series [16] is Dual specificity mitogen-activated protein kinase kinase 2 (Homo sapiens) (UniProt P36507). Nature of the series: Selectivity interaction (ProQinase) EUB0000171b MAP2K2.
The target of series [17] is Potassium voltage-gated channel subfamily A member 5 (Homo sapiens) (UniProt P22460). Put plainly: Selectivity interaction (Panel of kinases, GPCRs, ion channels and transporters (enzymatic assay)) EUB0000223bCl KCNA5.
Another series has as its target OATP1B1 (SLCO1B1) (Homo sapiens, UniProt Q9Y6L6). Put plainly: Selectivity interaction (Panel of kinases, GPCRs, ion channels and transporters (enzymatic assay)) EUB0000223bCl SLCO1B1. The settings on record: not told.
The target in series [18] is Phosphatidylinositol 4-phosphate 5-kinase type-1 gamma (Homo sapiens) (UniProt O60331). Put plainly: Selectivity interaction (KinomeScan (DiscoverX)) EUB0000092b PIP5K1C. The settings on record: at 10 µM.
Series [19] addresses T2, Serine/threonine-protein kinase ULK3 (Homo sapiens) (UniProt Q6PHR2).
T2 sequence (whole entry): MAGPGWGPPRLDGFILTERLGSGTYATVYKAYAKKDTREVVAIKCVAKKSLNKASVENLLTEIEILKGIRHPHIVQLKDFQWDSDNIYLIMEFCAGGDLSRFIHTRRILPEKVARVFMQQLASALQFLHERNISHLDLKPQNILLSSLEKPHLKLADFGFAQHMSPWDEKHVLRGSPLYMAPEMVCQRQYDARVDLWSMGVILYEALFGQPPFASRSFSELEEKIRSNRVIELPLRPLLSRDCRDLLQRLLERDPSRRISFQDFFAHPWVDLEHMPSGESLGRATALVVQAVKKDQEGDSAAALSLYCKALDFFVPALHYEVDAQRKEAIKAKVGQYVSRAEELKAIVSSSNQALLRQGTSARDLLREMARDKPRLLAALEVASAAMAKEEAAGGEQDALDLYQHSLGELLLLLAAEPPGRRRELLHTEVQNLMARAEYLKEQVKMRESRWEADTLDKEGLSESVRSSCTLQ
Put plainly: Selectivity interaction (Kinase panel (DSF assay)) EUB0001559a ULK3. In general terms: In DSF a fluorescence change marks the thermal transition of the protein.

Series [20] deals with TRAF2 and NCK-interacting protein kinase (Homo sapiens) (UniProt Q9UKE5). Put plainly: Selectivity interaction (KinomeScan (DiscoverX)) EUB0000618a TNIK. The settings on record: at 10 µM.

A value given as a limit tells only on which side of the number the result lay.

Chain of Dual specificity mitogen-activated protein kinase kinase 2 (Homo sapiens) (P36507 whole entry): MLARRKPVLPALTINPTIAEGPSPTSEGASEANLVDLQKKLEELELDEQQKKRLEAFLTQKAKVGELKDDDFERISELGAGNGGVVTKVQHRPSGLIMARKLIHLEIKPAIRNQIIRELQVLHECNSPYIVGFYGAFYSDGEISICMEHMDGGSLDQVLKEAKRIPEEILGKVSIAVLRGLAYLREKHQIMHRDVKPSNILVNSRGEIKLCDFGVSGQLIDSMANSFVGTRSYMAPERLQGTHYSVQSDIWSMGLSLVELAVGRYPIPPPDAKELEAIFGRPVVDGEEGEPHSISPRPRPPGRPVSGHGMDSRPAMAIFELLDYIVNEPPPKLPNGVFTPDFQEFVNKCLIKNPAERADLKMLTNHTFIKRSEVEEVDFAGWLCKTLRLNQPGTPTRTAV
Chain of Receptor tyrosine-protein kinase erbB-3 (Homo sapiens) (P21860 whole entry): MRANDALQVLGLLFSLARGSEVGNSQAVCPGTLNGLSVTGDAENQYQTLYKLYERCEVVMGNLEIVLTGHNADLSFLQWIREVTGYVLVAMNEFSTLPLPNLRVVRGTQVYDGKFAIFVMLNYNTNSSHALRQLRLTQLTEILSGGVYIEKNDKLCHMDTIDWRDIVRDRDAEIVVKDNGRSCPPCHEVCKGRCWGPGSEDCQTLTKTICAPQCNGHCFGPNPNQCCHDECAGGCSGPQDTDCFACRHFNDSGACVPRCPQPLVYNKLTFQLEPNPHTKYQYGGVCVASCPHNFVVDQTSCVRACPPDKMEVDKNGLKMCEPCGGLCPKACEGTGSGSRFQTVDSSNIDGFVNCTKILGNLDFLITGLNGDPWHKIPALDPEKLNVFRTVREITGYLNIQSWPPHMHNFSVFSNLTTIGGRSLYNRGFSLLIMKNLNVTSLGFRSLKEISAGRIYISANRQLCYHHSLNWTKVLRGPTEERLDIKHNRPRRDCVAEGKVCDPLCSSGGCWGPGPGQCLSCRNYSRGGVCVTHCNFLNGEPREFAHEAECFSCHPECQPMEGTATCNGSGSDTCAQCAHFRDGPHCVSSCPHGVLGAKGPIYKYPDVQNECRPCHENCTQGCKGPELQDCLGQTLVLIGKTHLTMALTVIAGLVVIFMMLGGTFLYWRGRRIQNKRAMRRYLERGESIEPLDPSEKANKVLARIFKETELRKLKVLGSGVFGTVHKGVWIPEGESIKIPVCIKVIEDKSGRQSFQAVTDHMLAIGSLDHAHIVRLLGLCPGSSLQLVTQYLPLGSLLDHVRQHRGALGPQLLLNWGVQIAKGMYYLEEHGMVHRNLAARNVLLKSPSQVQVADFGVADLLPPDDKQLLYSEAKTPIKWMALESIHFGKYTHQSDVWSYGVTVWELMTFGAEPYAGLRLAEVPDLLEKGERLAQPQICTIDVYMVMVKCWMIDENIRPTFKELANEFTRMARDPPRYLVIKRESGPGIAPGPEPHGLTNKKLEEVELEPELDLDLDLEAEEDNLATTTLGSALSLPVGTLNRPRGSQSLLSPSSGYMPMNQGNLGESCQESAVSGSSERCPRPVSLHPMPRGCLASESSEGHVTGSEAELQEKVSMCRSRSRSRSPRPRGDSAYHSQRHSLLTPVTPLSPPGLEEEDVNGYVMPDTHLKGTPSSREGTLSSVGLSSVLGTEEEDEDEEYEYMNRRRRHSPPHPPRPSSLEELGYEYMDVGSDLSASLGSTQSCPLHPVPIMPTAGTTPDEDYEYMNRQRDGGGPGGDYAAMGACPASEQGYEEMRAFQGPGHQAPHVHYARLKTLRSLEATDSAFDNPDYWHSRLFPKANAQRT
Chain of Tyrosine-protein kinase ABL2 (P42684 whole entry): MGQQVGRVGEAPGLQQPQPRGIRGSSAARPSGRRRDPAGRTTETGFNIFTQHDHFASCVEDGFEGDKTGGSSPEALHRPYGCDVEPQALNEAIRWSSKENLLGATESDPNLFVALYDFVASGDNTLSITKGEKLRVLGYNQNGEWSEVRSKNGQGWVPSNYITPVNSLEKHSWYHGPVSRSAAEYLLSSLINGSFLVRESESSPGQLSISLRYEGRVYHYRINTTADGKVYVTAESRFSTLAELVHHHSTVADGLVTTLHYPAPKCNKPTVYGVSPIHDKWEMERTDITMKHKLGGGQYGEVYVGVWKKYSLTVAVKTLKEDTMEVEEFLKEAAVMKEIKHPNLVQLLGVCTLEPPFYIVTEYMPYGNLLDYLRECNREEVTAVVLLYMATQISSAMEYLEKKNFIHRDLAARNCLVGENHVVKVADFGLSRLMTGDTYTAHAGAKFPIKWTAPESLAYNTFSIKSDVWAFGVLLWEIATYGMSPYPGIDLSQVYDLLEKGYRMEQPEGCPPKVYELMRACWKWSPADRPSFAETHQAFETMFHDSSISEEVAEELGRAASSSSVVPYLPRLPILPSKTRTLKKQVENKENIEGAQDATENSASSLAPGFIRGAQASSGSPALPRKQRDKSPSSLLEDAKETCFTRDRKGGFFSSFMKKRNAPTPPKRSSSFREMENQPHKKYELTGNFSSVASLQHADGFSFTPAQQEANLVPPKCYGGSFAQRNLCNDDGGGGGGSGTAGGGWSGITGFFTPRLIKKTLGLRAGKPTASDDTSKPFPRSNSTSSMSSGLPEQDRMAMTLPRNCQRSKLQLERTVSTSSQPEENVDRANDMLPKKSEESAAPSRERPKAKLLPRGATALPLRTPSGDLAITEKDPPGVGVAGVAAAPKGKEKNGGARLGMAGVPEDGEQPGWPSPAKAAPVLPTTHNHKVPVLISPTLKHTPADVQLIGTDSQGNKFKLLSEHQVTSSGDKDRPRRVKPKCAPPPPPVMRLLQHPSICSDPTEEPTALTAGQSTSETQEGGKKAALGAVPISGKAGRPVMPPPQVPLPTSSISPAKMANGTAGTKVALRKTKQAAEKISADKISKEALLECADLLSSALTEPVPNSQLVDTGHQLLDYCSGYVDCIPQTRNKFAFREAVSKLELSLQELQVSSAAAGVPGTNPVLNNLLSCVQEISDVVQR
Chain of Ribosomal protein S6 kinase alpha-6 (Q9UK32 whole entry): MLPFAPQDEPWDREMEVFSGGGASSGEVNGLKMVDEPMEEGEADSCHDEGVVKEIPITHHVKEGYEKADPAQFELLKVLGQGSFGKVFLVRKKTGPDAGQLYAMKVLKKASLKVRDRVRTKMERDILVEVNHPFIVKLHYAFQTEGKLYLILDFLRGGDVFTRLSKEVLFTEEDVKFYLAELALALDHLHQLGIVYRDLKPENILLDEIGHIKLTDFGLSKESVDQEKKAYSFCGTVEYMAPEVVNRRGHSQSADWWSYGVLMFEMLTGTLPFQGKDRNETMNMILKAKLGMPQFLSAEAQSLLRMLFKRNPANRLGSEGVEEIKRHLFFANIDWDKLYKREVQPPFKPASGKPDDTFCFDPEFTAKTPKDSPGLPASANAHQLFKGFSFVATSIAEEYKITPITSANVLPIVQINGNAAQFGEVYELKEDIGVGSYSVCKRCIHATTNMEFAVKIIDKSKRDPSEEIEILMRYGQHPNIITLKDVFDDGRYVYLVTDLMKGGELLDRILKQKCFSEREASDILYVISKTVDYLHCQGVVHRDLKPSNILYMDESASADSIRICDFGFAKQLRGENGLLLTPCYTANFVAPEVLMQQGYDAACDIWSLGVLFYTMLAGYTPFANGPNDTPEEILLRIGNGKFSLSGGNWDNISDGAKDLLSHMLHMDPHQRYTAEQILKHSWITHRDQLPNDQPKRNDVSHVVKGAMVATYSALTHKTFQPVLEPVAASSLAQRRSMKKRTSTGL
Chain of Protein-tyrosine kinase 6 (Q13882 whole entry, looked up): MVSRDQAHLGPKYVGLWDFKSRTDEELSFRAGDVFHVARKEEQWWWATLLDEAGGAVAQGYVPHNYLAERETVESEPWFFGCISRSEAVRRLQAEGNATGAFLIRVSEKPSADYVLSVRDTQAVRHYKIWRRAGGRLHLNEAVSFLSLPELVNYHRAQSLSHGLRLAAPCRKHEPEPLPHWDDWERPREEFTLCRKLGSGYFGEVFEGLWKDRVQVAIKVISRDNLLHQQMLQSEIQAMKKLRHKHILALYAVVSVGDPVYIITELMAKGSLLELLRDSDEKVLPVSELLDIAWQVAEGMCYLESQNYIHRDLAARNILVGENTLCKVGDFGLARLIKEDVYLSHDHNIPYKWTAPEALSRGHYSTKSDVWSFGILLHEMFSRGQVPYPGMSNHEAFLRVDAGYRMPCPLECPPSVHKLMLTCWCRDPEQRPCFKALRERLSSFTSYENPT
Chain of Mitogen-activated protein kinase kinase kinase 10 (Homo sapiens) (Q02779 whole entry, looked up): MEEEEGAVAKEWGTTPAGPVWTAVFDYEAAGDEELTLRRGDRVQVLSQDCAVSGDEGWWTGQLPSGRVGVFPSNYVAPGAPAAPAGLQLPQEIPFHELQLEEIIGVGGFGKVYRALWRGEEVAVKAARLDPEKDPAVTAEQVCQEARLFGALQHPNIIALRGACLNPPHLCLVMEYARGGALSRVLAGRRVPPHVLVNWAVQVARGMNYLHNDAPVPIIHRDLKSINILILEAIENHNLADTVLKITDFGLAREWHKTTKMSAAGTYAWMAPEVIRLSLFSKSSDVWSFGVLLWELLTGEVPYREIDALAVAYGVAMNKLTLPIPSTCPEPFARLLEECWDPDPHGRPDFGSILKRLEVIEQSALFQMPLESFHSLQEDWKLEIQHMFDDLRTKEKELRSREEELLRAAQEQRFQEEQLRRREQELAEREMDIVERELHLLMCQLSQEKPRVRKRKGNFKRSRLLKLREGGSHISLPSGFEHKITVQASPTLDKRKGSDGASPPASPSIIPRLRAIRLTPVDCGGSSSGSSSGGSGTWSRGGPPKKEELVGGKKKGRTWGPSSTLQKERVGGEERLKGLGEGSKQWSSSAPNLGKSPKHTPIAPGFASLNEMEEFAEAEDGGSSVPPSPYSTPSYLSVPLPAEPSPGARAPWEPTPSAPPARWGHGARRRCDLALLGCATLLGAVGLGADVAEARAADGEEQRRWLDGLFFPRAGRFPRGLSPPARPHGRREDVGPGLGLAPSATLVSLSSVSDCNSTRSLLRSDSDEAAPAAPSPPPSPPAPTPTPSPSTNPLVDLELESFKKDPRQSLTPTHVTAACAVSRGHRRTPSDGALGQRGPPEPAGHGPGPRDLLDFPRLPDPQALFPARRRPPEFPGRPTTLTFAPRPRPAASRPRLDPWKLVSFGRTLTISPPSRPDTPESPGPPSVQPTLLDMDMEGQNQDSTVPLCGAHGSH

Turning to `Cn1cc(-n2cnc3c(NCc4nc5cc(Cl)c(Cl)cc5[nH]4)nc(N4CCOCC4)nc32)cn1`, the % of control in [1] was determined as 3.23%.

On to `CNC(=O)Nc1ccc(-c2nc(N3CC4CCC(C3)O4)c3cnn(C4CCC5(CC4)OCCO5)c3n2)cc1`, for which the % of inhibition in series [2] is -1%. Also, the % of control in [3] came out at 100%; in [4], 91%.

As to `Cc1cc([C@@H](C)Nc2ccccc2C(=O)O)c2nc(N3CCOCC3)cc(=O)n2c1` [AZD-6482], in [5], the % of control stood at 75%.

`O=C(NOC[C@H](O)CO)c1ccc(F)c(F)c1Nc1ccc(I)cc1F` returned a % of control in series [6] of 100%. On to `COc1cc(N(C)c2ccnc3ccc(C(F)(F)F)cc23)cc(OC)c1OC`, for which the % binding at Misshapen-like kinase 1 is 68%; in series [7] it was 74%. With `CN(C)CCOc1ccc(-c2nc(-c3ccncc3)c(-c3ccc4c(c3)CC/C4=N\O)[nH]2)cc1`, the % of control in [8] is 0.7%. `Nc1cnc(N2CCc3cc(S(=O)(=O)Nc4c(F)cc(Cl)cc4F)cc(N4CCCC4=O)c32)nc1` [TP-020n] showed a % of control in series [9] of 95%. Take `N#Cc1cccc(-c2c[nH]c3ncnc(N4CCOCC4)c23)c1`: the % of inhibition in series [10] is -12%. As to `CCC(=O)N1CC[C@H](Nc2ncnc3c2CN(c2cnc(OC)c(C(F)(F)F)c2)CC3)C1` [LENIOLISIB], the half-inhibitory concentration (IC50) in series [11] was > 10 µM. On to `CC[C@@H]1[C@H](F)C(=O)N[C@@H]1COc1nccc2cc(C(N)=O)c(OC)cc12` [ZIMLOVISERTIB], for which the % of inhibition was -1.18% in [12], 18.4% in series [13] and -11.5% in series [14].

As for `Cc1cc(F)c(C(=O)Nc2cccc(-c3nncn3C(C)C)n2)cc1-n1cnc(C2CC2)c1`, the % of control in [15] worked out at 91%. Take `C=CC(=O)Nc1cccc(C(=O)Nc2ccc(Nc3cc(-c4[nH]c(SC)nc4C)ccn3)cc2)c1`: the % of control amounted to 76% in series [16] (at 1 µM) and 36% in [16] (at 5 µM). For the compound `COc1cc(C(=O)N2CC[C@@H](O)[C@@H](N)C2)cc2nc(-c3cc4ccccc4n3CC3CC3)n(C)c12`, the pXC50 in series [17] is < 4.8 M. This compound also had an XC50 on OATP1B1 (SLCO1B1) of 7.94 µM. The compound `CCC(=O)N1CCN(c2ccc(-n3c(=O)ccc4cnc5ccc(-c6cnc7ccccc7c6)cc5c43)cc2C(F)(F)F)CC1` gave a % of control in [18] of 80%. For `CN(C(=O)c1cnn2cccnc12)c1cc2c(cc1N1CCOCC1)C(=O)N(C[C@@H](F)C(C)(C)O)C2`, the dTM in series [19] is -0.5 K. On to `O[C@H]1CC[C@H](Nc2ncc3nc(Nc4c(F)cc(F)cc4F)n([C@H]4CCOC4)c3n2)CC1`, for which the % of control in series [20] was 83%.

For orientation: IC50 means the concentration that gives 50% inhibition. Higher therefore signals a need for much substance.
